Assay results taken from patent US4072574A, “System for in vitro assay for mutagenicity and/or carcinogenicity of chemicals or other exogenous agents” (priority 1976, dated 1978).

What was measured:
[1] = known status of the compound; cited from earlier work
AMV DNA polymerase = assay: Fidelity of in vitro DNA synthesis (error frequency) with AMV DNA polymerase copying synthetic polynucleotide templates
From the text: In this invention, the ability of carcinogens to decrease the fidelity of in vitro DNA synthesis will be used to screen for carcinogenic or mutagenic agents. The system uses synthetic polynucleotides of defined composition which may be copied in the test tubes with procaryotic, eucaryotic or viral DNA polymerases. The use of synthetic polynucleotides of defined composition allows the measurement of the simultaneous incorporation of the correct, complementary nucleotide and an incorrect, non-complementary nucleotide. The correct nucleotide is labeled with [α-^32 P] of low specific activity and the incorrect nucleotide is labeled with [^3 H] of high specific activity. Through this double labeled reaction it is possible to determine the simultaneous incorporation of both nucleotides and thus to determine an error frequency. The error frequency may be defined as the ratio of the incorrect/correct nucleotide incorporation. Agents which increase this error frequency may be scored as positive. […] Agents which score positive would be checked using different templates to underscore the positive results. In this system different polymerases will be used as well as different templates. One would expect that most carcinogens would change the fidelity of DNA synthesis with different polymerases as well as with different templates though this need not be the case.
Each assay will consist of a polymerase, a polynucleotide template that only contains one or two nucleotides, a complementary nucleotide and a non-complementary nucleotide as well as magnesium. Both of the nucleotides will be labeled by radioactive precursors and the ratio between the two is to be used for a measure of error frequency in the system. In instances where a template requires two complementary nucleotides, only one will be radioactively labeled.
Reactions (total volume 0.05 ml) which measured complementary nucleotide incorporation contained 50 mM Tris-HCL (pH 8.0), 20 mM KCl, 5 mM dithiothreitol, 5 mM MgCl2, 2μg BSA, […] [α-^32 P] -dTTP (60 dpm/pmole), 1μg poly (A).oligo (dT) (1:1.5 mass ratio), and 0.45 μg of AMV DNA polymerase. For simultaneous quantitation of complementary and non-complementary nucleotide incorporation each reaction was modified to contain 26μM [α-^32 P]dTTP (12 dpm/pmole) and 23μM [^3 H]-dCTP (50,000 dpm/pmole). […] Metals were added directly to the reaction mixture as aqueous solutions of chloride salts. All reactions were incubated for 60 min. at 37° C. Incorporation of radioactive nucleotides into an acid-insoluble and alkali-resistant product was determined by using the precipitation-solubilization procedure as described by Battula and Loeb. All experiments were performed in triplicate and the averages were determined.
In order to determine the effect of different metals on the accuracy of DNA replication, metal cations were added as chloride salts directly to the polymerase reaction. In these experiments, poly (A).oligo (dT) was the template-primer and the simultaneous incorporation of complementary nucleotide, [α-^32 P]-dTMP, and the non-complementery nucleotide, [^3 H]-dCMP, was determined.
The effect of metal salts on the fidelity of DNA synthesis was examined by testing each of the metal salts at a minimum of seven different concentrations.

[2] = Table 1, template poly [d(A-T)], classes 1-3 not defined
[3] = Table 1, template poly (C).oligo (dG), classes 1-3 not defined
[4] = 0.8 mM Ca(C2 H3 O2)2, template in drawing 3
[5] = 2.4 mM Ca(C2 H3 O2)2, template in drawing 3
[6] = 4.0 mM Ca(C2 H3 O2)2, template in drawing 3
[7] = 4.8 mM Ca(C2 H3 O2)2, template in drawing 3
[8] = 0.08 mM CrCl2, template in drawing 1
[9] = 0.16 mM CrCl2, template in drawing 1
[10] = 0.24 mM CrCl2, template in drawing 1
[11] = 0.64 mM CrCl2, template in drawing 1
[12] = 0.02 mM CuCl2, template in drawing 2
[13] = 0.04 mM CuCl2, template in drawing 2
[14] = 0.08 mM CuCl2, template in drawing 2
[15] = 0.12 mM CuCl2, template in drawing 2
[16] = 8 mM K2 HPO4, template in drawing 4
[17] = 16 mM K2 HPO4, template in drawing 4
[18] = 32 mM K2 HPO4, template in drawing 4
[19] = 40 mM K2 HPO4, template in drawing 4
[20] = 4 mM KC2 H3 O2, template in drawing 5
[21] = 20 mM KC2 H3 O2, template in drawing 5
[22] = 40 mM KC2 H3 O2, template in drawing 5
[23] = 80 mM KC2 H3 O2, template in drawing 5

## O=S(=O)([O-])[O-].O=S(=O)([O-])[O-].O=S(=O)([O-])[O-].[Al+3].[Al+3] [(Al)2 (SO4)3]
[1]
  Carcinogen or Mutagen: -
AMV DNA polymerase; [2]
  Class: 2
AMV DNA polymerase; template poly [d(A-T)]
  Metal Concentration which yielded the largest observed change in error rate: 10 mM

## N.N.O=S(=O)(O)O [(NH4)2 SO4]
[1]
  Carcinogen or Mutagen: -
AMV DNA polymerase; [3]
  Class: 2
AMV DNA polymerase; template poly (C).oligo (dG)
  Metal Concentration which yielded the largest observed change in error rate: 120 mM

## O=[N+]([O-])[O-].[Ag+] [AgNO3]
[1]
  Carcinogen or Mutagen: +
AMV DNA polymerase; [2]
  Class: 1
AMV DNA polymerase; template poly [d(A-T)]
  Metal Concentration which yielded the largest observed change in error rate: 0.03 mM

## CC(=O)O [Ca(C2 H3 O2)2]
AMV DNA polymerase; [4]
  Complementary Deoxynucleotide Incorporation: 217 pmol
  Error Frequency: 1/986
  Non-complementary Deoxynucleotide Incorporation: 0.22 pmol
AMV DNA polymerase; [5]
  Complementary Deoxynucleotide Incorporation: 78 pmol
  Error Frequency: 1/975
  Non-complementary Deoxynucleotide Incorporation: 0.08 pmol
AMV DNA polymerase; [6]
  Complementary Deoxynucleotide Incorporation: 39 pmol
  Error Frequency: 1/975
  Non-complementary Deoxynucleotide Incorporation: 0.04 pmol
AMV DNA polymerase; [7]
  Complementary Deoxynucleotide Incorporation: 17 pmol
  Error Frequency: 1/850
  Non-complementary Deoxynucleotide Incorporation: 0.02 pmol
AMV DNA polymerase; Table 2, classes not defined
  Class: 2

## CC(=O)[O-].CC(=O)[O-].[Cd+2] [Cd(C2 H3 O2)2]
[1]
  Carcinogen or Mutagen: +
AMV DNA polymerase; [3]
  Class: 1
AMV DNA polymerase; template poly (C).oligo (dG)
  Metal Concentration which yielded the largest observed change in error rate: 0.24 mM

## [Cl][Cd][Cl] [CdCl2]
[1]
  Carcinogen or Mutagen: +
AMV DNA polymerase; [3]
  Class: 1
AMV DNA polymerase; template poly (C).oligo (dG)
  Metal Concentration which yielded the largest observed change in error rate: 0.04 mM

## [Cl][Cr][Cl] [CrCl2]
[1]
  Carcinogen or Mutagen: +
AMV DNA polymerase; [8]
  Complementary Deoxynucleotide Incorporation: 133 pmol
  Error Frequency: 1/578
  Non-complementary Deoxynucleotide Incorporation: 0.23 pmol
AMV DNA polymerase; [9]
  Complementary Deoxynucleotide Incorporation: 169 pmol
  Error Frequency: 1/528
  Non-complementary Deoxynucleotide Incorporation: 0.32 pmol
AMV DNA polymerase; [10]
  Complementary Deoxynucleotide Incorporation: 127 pmol
  Error Frequency: 1/363
  Non-complementary Deoxynucleotide Incorporation: 0.35 pmol
AMV DNA polymerase; [11]
  Complementary Deoxynucleotide Incorporation: 71 pmol
  Error Frequency: 1/192
  Non-complementary Deoxynucleotide Incorporation: 0.37 pmol
AMV DNA polymerase; [2]
  Class: 1
AMV DNA polymerase; template poly [d(A-T)]
  Metal Concentration which yielded the largest observed change in error rate: 0.64 mM

## [O]=[Cr](=[O])=[O] [CrO3]
[1]
  Carcinogen or Mutagen: +
AMV DNA polymerase; [2]
  Class: 1
AMV DNA polymerase; template poly [d(A-T)]
  Metal Concentration which yielded the largest observed change in error rate: 16 mM

## CC(=O)[O-].CC(=O)[O-].[Cu+2] [Cu(C2 H3 O2)2]
[1]
  Carcinogen or Mutagen: ±
AMV DNA polymerase; [3]
  Class: 1
AMV DNA polymerase; template poly (C).oligo (dG)
  Metal Concentration which yielded the largest observed change in error rate: 0.12 mM

## [Cl][Cu][Cl] [CuCl2]
[1]
  Carcinogen or Mutagen: ±
AMV DNA polymerase; [12]
  Complementary Deoxynucleotide Incorporation: 385 pmol
  Error Frequency: 1/875
  Non-complementary Deoxynucleotide Incorporation: 0.44 pmol
AMV DNA polymerase; [13]
  Complementary Deoxynucleotide Incorporation: 130 pmol
  Error Frequency: 1/722
  Non-complementary Deoxynucleotide Incorporation: 0.18 pmol
AMV DNA polymerase; [14]
  Complementary Deoxynucleotide Incorporation: 54 pmol
  Error Frequency: 1/540
  Non-complementary Deoxynucleotide Incorporation: 0.10 pmol
AMV DNA polymerase; [15]
  Complementary Deoxynucleotide Incorporation: 36 pmol
  Error Frequency: 1/450
  Non-complementary Deoxynucleotide Incorporation: 0.08 pmol
AMV DNA polymerase; [3]
  Class: 1
AMV DNA polymerase; template poly (C).oligo (dG)
  Metal Concentration which yielded the largest observed change in error rate: 0.08 mM

## [Cl][Fe][Cl] [FeCl2]
[1]
  Carcinogen or Mutagen: ±
AMV DNA polymerase; [3]
  Class: 2
AMV DNA polymerase; template poly (C).oligo (dG)
  Metal Concentration which yielded the largest observed change in error rate: 4 mM

## O=P([O-])([O-])O.[K+].[K+] [K2 HPO4]
[1]
  Carcinogen or Mutagen: -
AMV DNA polymerase; [16]
  Complementary Deoxynucleotide Incorporation: 179 pmol
  Error Frequency: 1/814
  Non-complementary Deoxynucleotide Incorporation: 0.22 pmol
AMV DNA polymerase; [17]
  Complementary Deoxynucleotide Incorporation: 180 pmol
  Error Frequency: 1/783
  Non-complementary Deoxynucleotide Incorporation: 0.23 pmol
AMV DNA polymerase; [18]
  Complementary Deoxynucleotide Incorporation: 107 pmol
  Error Frequency: 1/823
  Non-complementary Deoxynucleotide Incorporation: 0.13 pmol
AMV DNA polymerase; [19]
  Complementary Deoxynucleotide Incorporation: 48 pmol
  Error Frequency: 1/960
  Non-complementary Deoxynucleotide Incorporation: 0.05 pmol
AMV DNA polymerase; [2]
  Class: 2
AMV DNA polymerase; Table 2, classes not defined
  Class: 2
AMV DNA polymerase; template poly [d(A-T)]
  Metal Concentration which yielded the largest observed change in error rate: 40 mM

## CC(=O)[O-].[K+] [KC2 H2 O2]
[1]
  Carcinogen or Mutagen: -
AMV DNA polymerase; [20]
  Complementary Deoxynucleotide Incorporation: 484 pmol
  Error Frequency: 1/733
  Non-complementary Deoxynucleotide Incorporation: 0.66 pmol
AMV DNA polymerase; [21]
  Complementary Deoxynucleotide Incorporation: 423 pmol
  Error Frequency: 1/755
  Non-complementary Deoxynucleotide Incorporation: 0.56 pmol
AMV DNA polymerase; [22]
  Complementary Deoxynucleotide Incorporation: 378 pmol
  Error Frequency: 1/741
  Non-complementary Deoxynucleotide Incorporation: 0.51 pmol
AMV DNA polymerase; [23]
  Complementary Deoxynucleotide Incorporation: 379 pmol
  Error Frequency: 1/743
  Non-complementary Deoxynucleotide Incorporation: 0.51 pmol
AMV DNA polymerase; [3]
  Class: 3
AMV DNA polymerase; Table 2, classes not defined
  Class: 3
AMV DNA polymerase; template poly (C).oligo (dG)
  Metal Concentration which yielded the largest observed change in error rate: 100 mM

## [Cl-].[K+] [KCl, potassium chloride]
[1]
  Carcinogen or Mutagen: -
AMV DNA polymerase; 1 mM to 300 mM, poly (A).oligo (dT)
  effect on the fidelity of DNA synthesis (in words): did not alter the fidelity of DNA synthesis
AMV DNA polymerase; [2]
  Class: 2
AMV DNA polymerase; template poly [d(A-T)]
  Metal Concentration which yielded the largest observed change in error rate: 150 mM

## [Cl][Mn][Cl] [MnCl2]
AMV DNA polymerase; [3]
  Class: 1
AMV DNA polymerase; template poly (C).oligo (dG)
  Metal Concentration which yielded the largest observed change in error rate: 10 mM
AMV DNA polymerase; various templates
  effect on the fidelity of DNA synthesis (in words): alter the fidelity

## [Cl-].[Na+] [NaCl]
AMV DNA polymerase; [2]
  Class: 2
AMV DNA polymerase; template poly [d(A-T)]
  Metal Concentration which yielded the largest observed change in error rate: 120 mM

## Cn1c(=O)c2c(ncn2C)n(C)c1=O [caffeine]
AMV DNA polymerase; 0.1-20 mM, poly (A).oligo (dT)
  effect on the fidelity of DNA synthesis (in words): did not alter the fidelity of DNA synthesis

## CC1=C(/C=C/C(C)=C/C=C/C(C)=C/CO)C(C)(C)CCC1 [retinol]
AMV DNA polymerase; 0.2-2μg, poly (A).oligo (dT)
  effect on the fidelity of DNA synthesis (in words): did not alter the fidelity of DNA synthesis

## NCCCCNCCCN [spermidine]
AMV DNA polymerase; 0.1 to 5 mM, poly (A).oligo (dT)
  effect on the fidelity of DNA synthesis (in words): did not alter the fidelity of DNA synthesis
